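These data come from cells grown in 96-well plates and exposed to compound for 48 hours at five concentrations. The concentration for 50% growth inhibition is given as GI50. TGI: concentration producing complete growth inhibition.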
What was measured:
Test in all cases: inhibition of tumour cell growth, NCI panel, 48 h
786-0 renal = test system: 786-0 renal
A498 renal = test system: A498 renal
A549 NSCLC = test system: A549 NSCLC
ACHN renal = test system: ACHN renal
BT-549 breast = test system: BT-549 breast
CAKI-1 renal = test system: CAKI-1 renal
CCRF-CEM leukemia = test system: CCRF-CEM leukemia
COLO 205 colon = test system: COLO 205 colon
DU-145 prostate = test system: DU-145 prostate
EKVX NSCLC = test system: EKVX NSCLC
HCC-2998 colon = test system: HCC-2998 colon
HCT-116 colon = test system: HCT-116 colon
HCT-15 colon = test system: HCT-15 colon
HL-60(TB) leukemia = test system: HL-60(TB) leukemia
HOP-62 NSCLC = test system: HOP-62 NSCLC
HOP-92 NSCLC = test system: HOP-92 NSCLC
HS 578T breast = test system: HS 578T breast
HT29 colon = test system: HT29 colon
IGROV1 ovarian = test system: IGROV1 ovarian
K-562 leukemia = test system: K-562 leukemia
KM12 colon = test system: KM12 colon
LOX IMVI melanoma = test system: LOX IMVI melanoma
M14 melanoma = test system: M14 melanoma
MALME-3M melanoma = test system: MALME-3M melanoma
MCF7 breast = test system: MCF7 breast
MDA-MB-231 breast = test system: MDA-MB-231 breast
MDA-MB-435 = test system: MDA-MB-435
MOLT-4 leukemia = test system: MOLT-4 leukemia
NCI-H226 lung = test system: NCI-H226 lung
NCI-H23 lung = test system: NCI-H23 lung
NCI-H460 lung = test system: NCI-H460 lung
NCI-H522 lung = test system: NCI-H522 lung
NCI/ADR-RES ovarian = test system: NCI/ADR-RES ovarian
OVCAR-3 ovarian = test system: OVCAR-3 ovarian
OVCAR-4 ovarian = test system: OVCAR-4 ovarian
OVCAR-5 ovarian = test system: OVCAR-5 ovarian
OVCAR-8 ovarian = test system: OVCAR-8 ovarian
PC-3 prostate = test system: PC-3 prostate
RPMI-8226 leukemia = test system: RPMI-8226 leukemia
RXF 393 renal = test system: RXF 393 renal
SF-268 CNS = test system: SF-268 CNS
SF-295 CNS = test system: SF-295 CNS
SF-539 CNS = test system: SF-539 CNS
SK-MEL-2 melanoma = test system: SK-MEL-2 melanoma
SK-MEL-28 melanoma = test system: SK-MEL-28 melanoma
SK-MEL-5 melanoma = test system: SK-MEL-5 melanoma
SK-OV-3 ovarian = test system: SK-OV-3 ovarian
SN12C renal = test system: SN12C renal
SNB-19 CNS = test system: SNB-19 CNS
SNB-75 CNS = test system: SNB-75 CNS
SR leukemia = test system: SR leukemia
SW-620 colon = test system: SW-620 colon
T-47D breast = test system: T-47D breast
TK-10 renal = test system: TK-10 renal
U251 CNS = test system: U251 CNS
UACC-257 melanoma = test system: UACC-257 melanoma
UO-31 renal = test system: UO-31 renal

Molecule `CC(C)(C[C@H]1CN(S(=O)(=O)c2cccc(C(F)(F)F)c2)c2cc(-c3cc(F)cc(OC(F)F)c3)ccc2O1)C(=O)O` has a GI50 (786-0 renal) of 6.98 µM, a TGI (786-0 renal) of 20.7 µM and a GI50 (A498 renal) of 4.5 µM. For the same molecule, the TGI (A498 renal) was 16.9 µM, the GI50 (A549 NSCLC) was 4.85 µM and the TGI (A549 NSCLC) was 17.9 µM. For the same molecule, the GI50 (ACHN renal) was 11.1 µM, the TGI (ACHN renal) was 23.1 µM and the GI50 (BT-549 breast) was 5.9 µM. For the same molecule, the TGI (BT-549 breast) was 22.3 µM, the GI50 (CAKI-1 renal) was 10.5 µM and the TGI (CAKI-1 renal) was 24.4 µM. It also gave a GI50 (CCRF-CEM leukemia) of 4.72 µM, a TGI (CCRF-CEM leukemia) of 24.7 µM and a GI50 (COLO 205 colon) of 11.3 µM. It also gave a TGI (COLO 205 colon) of 32.7 µM, a GI50 (DU-145 prostate) of 12.4 µM and a TGI (DU-145 prostate) of 25.3 µM. For the same molecule, the GI50 (EKVX NSCLC) was 5.25 µM, the TGI (EKVX NSCLC) was 19.3 µM and the GI50 (HCC-2998 colon) was 10.1 µM. It also gave a TGI (HCC-2998 colon) of 24.4 µM, a GI50 (HCT-116 colon) of 4.01 µM and a TGI (HCT-116 colon) of 15.8 µM. For the same molecule, the GI50 (HCT-15 colon) was 4.19 µM, the TGI (HCT-15 colon) was 16.9 µM and the GI50 (HL-60(TB) leukemia) was 4.82 µM. It also gave a TGI (HL-60(TB) leukemia) of 24.8 µM, a GI50 (HOP-62 NSCLC) of 6.65 µM and a TGI (HOP-62 NSCLC) of 23.8 µM. It also gave a GI50 (HOP-92 NSCLC) of 3.1 µM, a TGI (HOP-92 NSCLC) of 16.8 µM and a GI50 (HS 578T breast) of 4.47 µM. It also gave a TGI (HS 578T breast) of 27.8 µM, a GI50 (HT29 colon) of 4.01 µM and a TGI (HT29 colon) of 15.6 µM. The GI50 (IGROV1 ovarian) was 9.43 µM, the TGI (IGROV1 ovarian) was 27.6 µM and the GI50 (K-562 leukemia) was 4.83 µM. It also gave a TGI (K-562 leukemia) of 30.3 µM, a GI50 (KM12 colon) of 4.38 µM and a TGI (KM12 colon) of 16.4 µM. The GI50 (LOX IMVI melanoma) was 6.54 µM, the TGI (LOX IMVI melanoma) was 22.5 µM and the GI50 (M14 melanoma) was 4.59 µM. For the same molecule, the TGI (M14 melanoma) was 17.5 µM, the GI50 (MALME-3M melanoma) was 10.2 µM and the TGI (MALME-3M melanoma) was 25.1 µM. The GI50 (MCF7 breast) was 3.98 µM, the TGI (MCF7 breast) was 22.4 µM and the GI50 (MDA-MB-231 breast) was 13.3 µM. It also gave a TGI (MDA-MB-231 breast) of 34 µM, a GI50 (MDA-MB-435) of 2440 nM and a TGI (MDA-MB-435) of 7.58 µM. For the same molecule, the GI50 (MOLT-4 leukemia) was 5.88 µM, the TGI (MOLT-4 leukemia) was 29.7 µM and the GI50 (NCI-H226 lung) was 15.2 µM. For the same molecule, the TGI (NCI-H226 lung) was 56 µM, the GI50 (NCI-H23 lung) was 9.4 µM and the TGI (NCI-H23 lung) was 26.3 µM. The GI50 (NCI-H460 lung) was 4.1 µM, the TGI (NCI-H460 lung) was 16.3 µM and the GI50 (NCI-H522 lung) was 2500 nM. The TGI (NCI-H522 lung) was 10.7 µM, the GI50 (NCI/ADR-RES ovarian) was 5.07 µM and the TGI (NCI/ADR-RES ovarian) was 30.9 µM. For the same molecule, the GI50 (OVCAR-3 ovarian) was 3.76 µM, the TGI (OVCAR-3 ovarian) was 14.1 µM and the GI50 (OVCAR-4 ovarian) was 13.2 µM. For the same molecule, the TGI (OVCAR-4 ovarian) was 41.7 µM, the GI50 (OVCAR-5 ovarian) was 12.6 µM and the TGI (OVCAR-5 ovarian) was 25.9 µM. For the same molecule, the GI50 (OVCAR-8 ovarian) was 12.1 µM, the TGI (OVCAR-8 ovarian) was 35.5 µM and the GI50 (PC-3 prostate) was 5.04 µM. It also gave a TGI (PC-3 prostate) of 18.9 µM, a GI50 (RPMI-8226 leukemia) of 3.45 µM and a TGI (RPMI-8226 leukemia) of 17.6 µM. It also gave a GI50 (RXF 393 renal) of 8.43 µM, a TGI (RXF 393 renal) of 24.2 µM and a GI50 (SF-268 CNS) of 10.3 µM. The TGI (SF-268 CNS) was 24.7 µM, the GI50 (SF-295 CNS) was 4.12 µM and the TGI (SF-295 CNS) was 18.5 µM. The GI50 (SF-539 CNS) was 5.41 µM, the TGI (SF-539 CNS) was 19.1 µM and the GI50 (SK-MEL-2 melanoma) was 4.8 µM. It also gave a TGI (SK-MEL-2 melanoma) of 18.2 µM, a GI50 (SK-MEL-28 melanoma) of 10.9 µM and a TGI (SK-MEL-28 melanoma) of 24.4 µM. It also gave a GI50 (SK-MEL-5 melanoma) of 3.56 µM, a TGI (SK-MEL-5 melanoma) of 14.9 µM and a GI50 (SK-OV-3 ovarian) of 13.2 µM. The TGI (SK-OV-3 ovarian) was 27.4 µM, the GI50 (SN12C renal) was 11.3 µM and the TGI (SN12C renal) was 28 µM. For the same molecule, the GI50 (SNB-19 CNS) was 5.92 µM, the TGI (SNB-19 CNS) was 20.7 µM and the GI50 (SNB-75 CNS) was 5.31 µM. The TGI (SNB-75 CNS) was 23.4 µM, the GI50 (SR leukemia) was 3.29 µM and the TGI (SR leukemia) was 23.8 µM. The GI50 (SW-620 colon) was 5.02 µM, the TGI (SW-620 colon) was 21.5 µM and the GI50 (T-47D breast) was 5.19 µM. The TGI (T-47D breast) was 29.2 µM, the GI50 (TK-10 renal) was 9.07 µM and the TGI (TK-10 renal) was 27.6 µM. For the same molecule, the GI50 (U251 CNS) was 4.51 µM, the TGI (U251 CNS) was 17.1 µM and the GI50 (UACC-257 melanoma) was 11.5 µM. For the same molecule, the TGI (UACC-257 melanoma) was 27.3 µM, the GI50 (UO-31 renal) was 10.8 µM and the TGI (UO-31 renal) was 23.4 µM.

Source: PubChem BioAssay (NCI)
